The values that follow come from patent publication US12162861B2, “Dopamine D3 receptor selective antagonists/partial agonists; method of making; and use thereof” (THE UNITED STATES OF AMERICA, AS REPRESENTED BY THE …, priority 2016, dated 2024).

SMILES strings stand for the structures. Entries after “also recorded” stand apart in the source; their conditions may differ.

In assay [1] the test system is C57BL/6J mice. The following applies: listed as (±)-29.
Procedure: Twenty-four male mice (22-25 g) with a C57BL/6J genetic background were purchased from the Charles River Laboratories (Raleigh, NC).
Locomotor activity tests were conducted in open-field chambers (43×43×30 cm^3) (Accuscan Instruments, Inc., Columbus, OH, USA). […] On habituation days, the animals were moved to the test room, acclimated there for 10 min, and then placed in their assigned locomotor chambers. […] Then 15 min later, the animals were placed into the test chambers. Their locomotor activities were recorded every 20 min for 2 h using VersaMax version 3.0 software (Accuscan Instruments, Inc.). […] The locomotor activities were recorded for 2 h/day after each oxycodone injection. The locomotor behavioral data are expressed as means (±SEM). […] Posthoc Fisher's least significant difference was used for multiple comparisons. p<0.05 was considered statistically significant.
Assay [2] deals with T1, human dopamine D3R (Homo sapiens, UniProt P35462).
T1 construct: expressed in transfected cells; host or cells: CHO
T1 sequence (P35462 whole entry): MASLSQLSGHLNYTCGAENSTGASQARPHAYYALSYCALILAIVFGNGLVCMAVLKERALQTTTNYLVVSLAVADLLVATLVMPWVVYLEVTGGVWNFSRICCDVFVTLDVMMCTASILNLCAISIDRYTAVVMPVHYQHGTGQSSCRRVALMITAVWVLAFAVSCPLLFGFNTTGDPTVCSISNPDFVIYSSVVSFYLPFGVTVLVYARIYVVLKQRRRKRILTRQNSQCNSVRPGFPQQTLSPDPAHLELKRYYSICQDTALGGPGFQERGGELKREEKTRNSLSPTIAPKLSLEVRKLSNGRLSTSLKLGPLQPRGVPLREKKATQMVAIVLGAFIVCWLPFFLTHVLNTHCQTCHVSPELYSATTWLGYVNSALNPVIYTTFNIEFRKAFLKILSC
The assay can be described thus: D3R mitogenesis assay in CHO cells. In kind it is cell-based. The following applies: stimulation of mitogenesis, CHO cells with human D3R; read-out: Agonist EC50 ± SEM.

The subject of assay [3] is squirrel monkeys. Briefly: Cue-induced reinstatement of drug seeking in squirrel monkeys. The format is in vivo, squirrel monkey (Saimiri sciureus). The text has this: Cue-induced reinstatement: After the completion of priming-induced reinstatement testing, the monkeys were returned to baseline THC self-administration for 5-10 sessions. In subsequent extinction sessions, drug injections and all cues associated with drug injections were removed. This means that catheters were not connected to a pump and monkeys were not receiving infusions or visual cue presentations. After two or three days of extinction, we tested for cue-induced reinstatement of extinguished drug-seeking behavior after vehicle pretreatment (i.m.) by allowing delivery of a saline injection paired with the drug-associated cues. […] Each reinstatement test was a single session, which was preceded and followed by extinction session(s) with vehicle pretreatment (i.m.) 30 min before the sessions.
Δ^9-tetrahydrocannabinol (THC, NIDA Drug Supply Program, Bethesda, MD, USA) was dissolved in a vehicle containing 1% Tween 80, 1% ethanol, and saline to obtain stock solution (0.4 mg/ml) and further diluted with saline. In the reinstatement tests, THC was injected i.v. (1 ml/kg) immediately before the session.

Assay [4] addresses T2, human D3R (Homo sapiens, UniProt P35462).
T2 construct: expressed in transfected cells; host or cells: HEK293
Briefly: Radioligand competition binding, [3H]N-methylspiperone, D3R. The following applies: Table 1A; HEK 293 cells transfected with hD3R, [3H]N-methylspiperone; read-out: D3R K ± SEM. The method, then: Binding at dopamine D2-like receptors was determined using previously described methods. […] Upon reaching 80-90% confluence, cells were harvested using pre-mixed Earle's Balanced Salt Solution (EBSS) with 5 μM EDTA (Life Technologies) and centrifuged at 3000 rpm for 10 min at 21° C. The supernatant was removed and the pellet was resuspended in 10 mL hypotonic lysis buffer (5 mM MgCl2·6H2O, 5 mM Tris, pH 7.4 at 4° C.) and centrifuged at 20,000 rpm for 30 min at 4° C. The pellet was then resuspended in fresh EBSS buffer made from 8.7 g/L Earle's Balanced Salts without phenol red (US Biological, Salem, MA), 2.2 g/L sodium bicarbonate, pH to 7.4. A Bradford protein assay (Bio-Rad, Hercules, CA) was used to determine the protein concentration and membranes were diluted to 500 μg/mL and stored in a −80° C. freezer for later use.
Radioligand competition binding experiments were conducted using thawed membranes. Test compounds were freshly dissolved in 30% DMSO and 70% H2O to a stock concentration of 100 μM. To assist the solubilization of free-base compounds, 10 μl of glacial acetic acid was added along with the DMSO. Each test compound was then diluted into 13 half-log serial dilutions using 30% DMSO vehicle; final test concentrations ranged from 10 μM to 10 pM. Previously frozen membranes were diluted in fresh EBSS to a 100 μg/mL (for hD2R or hD3R) or 200 μg/mL (hD4R) stock for binding. Radioligand competition experiments were conducted in glass tubes containing 300 μl fresh EBSS buffer with 0.2 mM sodium metabisulfite, 50 μl of diluted test compound, 100 μl of membranes (10 μg total protein for hD2R or hD3R, 20 μg total protein for hD4R), and 50 μl of [^3H]N-methylspiperone (0.4 nM final concentration; Perkin Elmer). Nonspecific binding was determined using 10 μM butaclamol (Sigma-Aldrich, St. Louis, MO) and total binding was determined with 30% DMSO vehicle. All compound dilutions were tested in triplicate and the reaction incubated for one hour at room temperature. The reaction was terminated by filtration through Whatman GF/B filters, presoaked for one hour in 0.5% polyethylenimine, using a Brandel R48 filtering manifold (Brandel Instruments, Gaithersburg, MD). The filters were washed 3 times with 3 mL of ice cold EBSS buffer and transferred to scintillation vials. […] IC50 values for each compound were determined from dose-response curves and Ki values were calculated using the Cheng-Prusoff equation; these analyses were performed using GraphPad Prism version 5.00 for Windows (GraphPad Software, San Diego, CA). Reported Ki values were determined from least three independent experiments.

For assay [5], the system named is rats. Briefly: Thermal response (hot plate) in rats. In kind it is in vivo, rat. The following applies: hot plate 52 °C, FIG. 13. The method, then:
Methods: Compound (±)-29 was administered 15 minutes before saline or oxycodone challenge. Tests were performed after the rat was placed inside a transparent circular cage on a hot plate (52±0.2° C.). Licking the hind paw or jumping was considered as a sign of thermal nociception. The rat was then immediately removed from the hot plate and the time latency was recorded.

Assay [6] deals with Long-Evans rats. The assay can be described thus: Responding during saline substitution (extinction) testing in rats. The format is in vivo, rat. The following applies: 5 or 15 mg/kg. The text has this: Experiment 2. […] Following the completion of the self-administration testing, rats were allowed to self-administer oxycodone for another 4 daily sessions. […] Fifteen min after injection, they were placed in the chambers and allowed to lever-press for saline infusion for 3 hr.

For assay [7], the target named is opiate kappa receptor (Homo sapiens, UniProt P41145). Briefly: Binding to opiate kappa receptor.
opiate kappa receptor, sequence (P41145 whole entry): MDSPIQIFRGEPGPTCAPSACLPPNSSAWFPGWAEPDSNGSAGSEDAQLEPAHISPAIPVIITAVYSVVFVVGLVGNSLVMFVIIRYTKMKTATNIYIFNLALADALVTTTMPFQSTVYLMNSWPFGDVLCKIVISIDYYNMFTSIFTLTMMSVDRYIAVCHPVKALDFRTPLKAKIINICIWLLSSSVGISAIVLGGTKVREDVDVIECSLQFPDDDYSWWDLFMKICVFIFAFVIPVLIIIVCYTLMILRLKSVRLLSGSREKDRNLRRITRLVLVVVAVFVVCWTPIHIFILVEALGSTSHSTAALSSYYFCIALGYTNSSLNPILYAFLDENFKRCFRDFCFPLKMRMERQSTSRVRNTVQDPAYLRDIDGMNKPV

T2 sequence (P35462 whole entry): as the sequence (P35462 whole entry) above

Regarding `CCc1cc(Cl)c(OC)c(N2CCN(CC(O)CCNC(=O)c3cc4ccccc4[nH]3)CC2)c1` (racemic) [Compound 29, N-(4-(4-(3-chloro-5-ethyl-2-methoxyphenyl)piperazin-1-yl)-3-hydroxybutyl)-1H-indole-2-carboxamide], the acute oxycodone-induced hyperactivity entry in assay [1] (mice, 5, 15 mg/kg ip 15 min before oxycodone 4 mg/kg, day 2) was “dose-dependently inhibited oxycodone-induced hyperactivity”. Further, the “oxycodone prime-induced locomotor sensitization after 2 days of withdrawal” value in assay [1] (mice, day 9, oxycodone 4 mg/kg challenge without pretreatment) is “long-lasting inhibition in oxycodone-induced increases in locomotion”. For the same compound, in assay [2], the EC50 is over 8300 nM. The “cue-induced reinstatement of drug seeking behavior” value in assay [3] is recorded as “attenuated cue-induced reinstatement of drug seeking behavior”. Further, the Ki in assay [4] amounted to 6.29 nM. Further, in assay [5] (30 minutes following oxycodone 2 mg/kg i.p.), the “thermal response after oxycodone challenge (oxycodone induced analgesia)” value is reported as “no significant effects on animal's thermal response; also recorded: no effect on oxycodone induced analgesia”. Also, the “thermal response after saline challenge (analgesic effect of its own)” value in assay [5] (30 minutes following saline 1 ml/kg i.p.) was “no significant effects on animal's thermal response; also recorded: no analgesic effects of its own”. Besides, the “oxycodone seeking during extinction testing” value in assay [6] is “inhibited oxycodone seeking during extinction testing”. Further, the “binding to opiate kappa receptor” value in assay [7] is reported as “does not bind”.
